In US10611760B2, “Therapeutic compounds as inhibitors of the orexin-1 receptor” (C4X Discovery Limited, priority 2014, dated 2020):

How the values were obtained:
hOX1R = target: T1, hOX1R (Homo sapiens, UniProt O43613); assay: Intracellular calcium measurements using division-arrested cells, OX1; format: cell-based; conditions: agonist orexin A at 2×EC50, * = single experiment, otherwise average of at least two, read-out: pIC50 OX1 (converted)
T1 sequence (O43613 1-425): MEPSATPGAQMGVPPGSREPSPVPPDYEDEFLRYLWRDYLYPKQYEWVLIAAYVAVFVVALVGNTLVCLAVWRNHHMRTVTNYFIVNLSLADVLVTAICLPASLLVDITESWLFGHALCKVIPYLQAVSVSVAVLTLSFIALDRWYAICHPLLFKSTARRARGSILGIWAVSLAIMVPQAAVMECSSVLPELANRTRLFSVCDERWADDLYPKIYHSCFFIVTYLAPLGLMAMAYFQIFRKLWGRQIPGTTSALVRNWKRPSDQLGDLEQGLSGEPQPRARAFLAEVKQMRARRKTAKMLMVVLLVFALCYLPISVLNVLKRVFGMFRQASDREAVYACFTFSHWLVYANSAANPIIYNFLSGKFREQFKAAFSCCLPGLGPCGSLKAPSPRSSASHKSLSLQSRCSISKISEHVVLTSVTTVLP
Experimental: (§1) Intracellular Calcium Measurements Using Division-arrested Cells (Table 1):
(§2) Test compounds are prepared as 10 mM stock solutions in DMSO, then serially diluted in half log concentrations with DMSO followed by dilution with assay buffer (HBSS (Sigma-Aldrich, H8264) containing 20 mM HEPES (Sigma-Aldrich, H4034), 0.1% (w/v) bovine serum albumin and adjusted to pH 7.4) to a top final assay concentration of 10 μM.
(§3) Human OX1 (CT-A474) and human OX2 (CT-A475) receptor-expressing division-arrested cells are plated into 384 well black, clear bottom, cell-bind plates at a seeding density of 10,000 cells/50 μL growth media. The seeded plates are incubated at 37° C. in air supplemented with 5% CO2 for 16 hrs.
(§4) The media is removed and replaced with 30 μL/well of cell loading buffer (a vial of Calcium 5 is solubilized in 22 mL of assay buffer to which a freshly prepared 250 mM solution of probenecid in 1:1 1M NaOH to assay buffer (200 μL) is added) and the cells incubated for 1 hr at 37° C. The serially diluted test compounds (10 μL/well) are added to the plate, which is then incubated for 10 mins and placed in a FlexStation III reader.

hOX2R = target: T2, hOX2R (Homo sapiens, UniProt O43614); assay: Intracellular calcium measurements using division-arrested cells, OX2; format: cell-based; conditions: agonist orexin B at 2×EC50, * = single experiment, otherwise average of at least two, read-out: pIC50 OX2 (converted)
T2 sequence (O43614 1-444): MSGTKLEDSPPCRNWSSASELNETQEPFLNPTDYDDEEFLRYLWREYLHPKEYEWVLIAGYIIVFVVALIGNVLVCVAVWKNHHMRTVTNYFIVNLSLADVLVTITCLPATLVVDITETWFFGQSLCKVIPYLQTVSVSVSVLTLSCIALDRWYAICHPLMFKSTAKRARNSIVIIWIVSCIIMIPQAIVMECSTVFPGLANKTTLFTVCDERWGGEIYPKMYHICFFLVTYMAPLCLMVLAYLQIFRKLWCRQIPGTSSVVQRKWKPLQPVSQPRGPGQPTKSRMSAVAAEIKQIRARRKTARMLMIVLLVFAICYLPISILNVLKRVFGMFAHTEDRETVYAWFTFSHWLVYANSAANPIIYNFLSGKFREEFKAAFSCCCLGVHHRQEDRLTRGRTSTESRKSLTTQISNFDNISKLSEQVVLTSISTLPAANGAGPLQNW
Experimental: as §1, §2, §3, §4

IC50 (hOX1R)	IC50 (hOX2R)	Compound
631 nM	> 10000 nM	Cc1cc(C(=O)N(C)[C@H](CNc2ccc(Cl)cn2)C(C)C)c2ccccc2n1 [Example 51, (S)—N-(1-((5-chloropyridin-2-yl)amino)-3-methylbutan-2-yl)-N,2-dimethylquinoline-4-carboxamide]
79.4 nM	> 3980 nM	CC(C)[C@@H](CNc1nc2ccccc2n1C)N(C)C(=O)c1ccccc1-c1ccccc1 [Example 38, (S)—N-methyl-N-(3-methyl-1-((1-methyl-1H-benzo[d]imidazol-2-yl)amino)butan-2-yl)-[1,1′-biphenyl]-2-carboxamide]
	> 10000 nM	CC(C)[C@@H](CNc1ccc(Cl)cn1)N(C(=O)c1ccccc1-c1ccccc1)C1CC1 [Example 15, (S)—N-(1-((5-chloropyridin-2-yl)amino)-3-methylbutan-2-yl)-N-cyclopropyl-[1,1′-biphenyl]-2-carboxamide]
79.4 nM	> 7940 nM	Cc1nc(-c2ccccc2)c(C(=O)N(C)[C@H](CNc2ccc(Cl)cn2)C(C)C)s1 [Example 11, (S)—N-(1-((5-chloropyridin-2-yl)amino)-3-methylbutan-2-yl)-N,2-dimethyl-4-phenylthiazole-5-carboxamide]
158 nM	501 nM	CC(C)[C@@H](CNc1ccc(Cl)cn1)N(C)C(=O)c1c(-c2ccccc2)[nH]c2ccccc12 [Example 27, (S)—N-(1-((5-chloropyridin-2-yl)amino)-3-methylbutan-2-yl)-N-methyl-2-phenyl-1H-indole-3-carboxamide]
31.6 nM	2000 nM	Cc1nc(C(=O)N(C)[C@H](CNc2ccc(Cl)cn2)C(C)C)c(-c2ccccc2)s1 [Example 26, (S)—N-(1-((5-chloropyridin-2-yl)amino)-3-methylbutan-2-yl)-N,2-dimethyl-5-phenylthiazole-4-carboxamide]
158 nM	> 6310 nM	CC(C)[C@@H](CNc1ccc(Cl)cc1)N(C)C(=O)c1ccccc1-c1ccccc1 [Example 59, (S)—N-(1-((4-chlorophenyl)amino)-3-methylbutan-2-yl)-N-methyl-[1,1′-biphenyl]-2-carboxamide]
631 nM		CC(C)[C@@H](CNc1ccc(Cl)cn1)N(C)C(=O)c1cn(C)c2ccccc12 [Example 50, (S)—N-(1-((5-chloropyridin-2-yl)amino)-3-methylbutan-2-yl)-N,1-dimethyl-1H-indole-3-carboxamide]
63.1 nM		CC(C)[C@@H](CNc1ncc2ccccc2n1)N(C)C(=O)c1ccccc1-c1ccccc1 [Example 36, (S)—N-methyl-N-(3-methyl-1-(quinazolin-2-ylamino)butan-2-yl)-[1,1′-biphenyl]-2-carboxamide]

The next lines start with the compound.

Compound	IC50 (hOX1R)	IC50 (hOX2R)
CC(C)[C@@H](COc1ncc2ccccc2n1)N(C)C(=O)c1ccccc1-c1ccccc1 [Example 31, (S)—N-methyl-N-(3-methyl-1-(quinazolin-2-yloxy)butan-2-yl)-[1,1′-biphenyl]-2-carboxamide]	200 nM	
CC(C)[C@@H](CNc1nccc(-c2ccccc2)n1)N(C)C(=O)c1ccccc1-c1ccccc1 [Example 35, (S)—N-methyl-N-(3-methyl-1-((4-phenylpyrimidin-2-yl)amino)butan-2-yl)-[1,1′-biphenyl]-2-carboxamide]	79.4 nM	2000 nM
CC[C@@H](CNc1ccc(Cl)cn1)N(C)C(=O)c1cc(C(F)(F)F)ccc1-n1nccn1 [Example 17, (S)—N-(1-((5-chloropyridin-2-yl)amino)butan-2-yl)-N-methyl-2-(2H-1,2,3-triazol-2-yl)-5-(trifluoromethyl)benzamide]	200 nM	
CC[C@@H](CNc1ccc(Cl)cn1)NC(=O)c1cc(C)ccc1-n1nccn1 [Example 2, (S)—N-(1-((5-chloropyridin-2-yl)amino)butan-2-yl)-5-methyl-2-(2H-1,2,3-triazol-2-yl)benzamide]	39.8 nM	2000 nM
CC(C)[C@@H](CNC(=O)Nc1ccccc1)N(C)C(=O)c1ccccc1-c1ccccc1 [Example 58, (S)—N-methyl-N-(3-methyl-1-(3-phenylureido)butan-2-yl)-[1,1′-biphenyl]-2-carboxamide]	126 nM	> 5010 nM
Cc1cc(C)nc(OC[C@H](C(C)C)N(C)C(=O)c2ccccc2-c2ccccc2)n1 [Example 30, (S)—N-(1-((4,6-dimethylpyrimidin-2-yl)oxy)-3-methylbutan-2-yl)-N-methyl-[1,1′-biphenyl]-2-carboxamide]	1580 nM	> 5010 nM
CC[C@@H](CNc1ccc(C(F)(F)F)cn1)N(C)C(=O)c1nc(C)ccc1-n1nccn1 [Example 48, (S)—N,6-dimethyl-3-(2H-1,2,3-triazol-2-yl)-N-(1-((5-(trifluoromethyl)pyridin-2-yl)amino)butan-2-yl)picolinamide]	12.6 nM	2510 nM
Cc1cc(C)nc(NC[C@H](C(C)C)N(C)C(=O)c2ccccc2-c2ccccc2)n1 [Example 37, (S)—N-(1-((4,6-dimethylpyrimidin-2-yl)amino)-3-methylbutan-2-yl)-N-methyl-[1,1′-biphenyl]-2-carboxamide]	79.4 nM	
CC[C@@H](CNc1cnc(C(F)(F)F)cn1)N(C)C(=O)c1cc(Cl)ccc1-n1nccn1 [Example 40, (S)-5-chloro-N-methyl-2-(2H-1,2,3-triazol-2-yl)-N-(1-((5-(trifluoromethyl)pyrazin-2-yl)amino)butan-2-yl)benzamide]	15.8 nM	2510 nM
CC[C@@H](CNc1ccc(Cl)cn1)N(C)C(=O)c1cc(C)ccc1N1CCOCC1 [Example 22, (S)—N-(1-((5-chloropyridin-2-yl)amino)butan-2-yl)-N,5-dimethyl-2-morpholinobenzamide]		> 10000 nM
CC(C)[C@@H](COc1nc2ccccc2n1C)N(C)C(=O)c1ccccc1-c1ccccc1 [Example 33, (S)—N-methyl-N-(3-methyl-1-((1-methyl-1H-benzo[d]imidazol-2-yl)oxy)butan-2-yl)-[1,1′-biphenyl]-2-carboxamide]	100 nM	
CC[C@@H](CNc1ccc(C(F)(F)F)nc1)N(C)C(=O)c1nc(C)ccc1-n1nccn1 [Example 55, (S)—N,6-dimethyl-3-(2H-1,2,3-triazol-2-yl)-N-(1-((6-(trifluoromethyl)pyridin-3-yl)amino)butan-2-yl)picolinamide]	79.4 nM	
CC(C)[C@@H](COCc1ccc(F)cc1)N(C)C(=O)c1ccccc1-c1ccccc1 [Example 29, (S)—N-(1-((4-fluorobenzyl)oxy)-3-methylbutan-2-yl)-N-methyl-[1,1′-biphenyl]-2-carboxamide]	1580 nM	
Cc1nc(-c2ccccc2)c(C(=O)N[C@H](CNc2ccc(Cl)cn2)CC(C)C)s1 [Example 7, (S)—N-(1-((5-chloropyridin-2-yl)amino)-4-methylpentan-2-yl)-2-methyl-4-phenylthiazole-5-carboxamide]	1580 nM	
CC(C)[C@@H](COc1nccc(-c2ccccc2)n1)N(C)C(=O)c1ccccc1-c1ccccc1 [Example 32, (S)—N-methyl-N-(3-methyl-1-((4-phenylpyrimidin-2-yl)oxy)butan-2-yl)-[1,1′-biphenyl]-2-carboxamide]	200 nM	
CC[C@@H](CNc1cccc(C)n1)N(C)C(=O)c1cc(Cl)ccc1-n1nccn1 [Example 53, (S)-5-chloro-N-methyl-N-(1-((6-methylpyridin-2-yl)amino)butan-2-yl)-2-(2H-1,2,3-triazol-2-yl)benzamide]	251 nM	
CC[C@@H](CNc1ccc(Cl)cn1)N(C)C(=O)c1nc(C)ccc1-n1nccn1 [Example 21, (S)—N-(1-((5-chloropyridin-2-yl)amino)butan-2-yl)-N,6-dimethyl-3-(2H-1,2,3-triazol-2-yl)picolinamide]	7.94 nM	
CC[C@@H](CNc1ccc(C(F)(F)F)cn1)N(C)C(=O)c1cc(Cl)ccc1-n1nccn1 [Example 42, (S)-5-chloro-N-methyl-2-(2H-1,2,3-triazol-2-yl)-N-(1-((5-(trifluoromethyl)pyridin-2-yl)amino)butan-2-yl)benzamide]		1000 nM
